Source: US20170183318A1, “AMIDE COMPOUNDS, METHODS FOR PREPARATION, AND USE THEREOF AS AGENTS FOR THE TREATMENT AND PREVENTION OF DISEASES CAUSED BY RNA- AND/OR DNA-CONTAINING VIRUSES, AND CONCOMITANT DISEASES” (OBSCHESTVO S OGRANICHENNOI OTVETSTVENNOSTIYU …, priority 2014, published 2017)
Like-named read-outs stand apart in the source and are kept apart here. Starred links: 1 amine or outer side, 2 acyl side, 3 side chain; linkers in the order of their positions; H or OH if unused. Non-standard residues stand in square brackets, D forms with d. Residues, ends and D or L forms follow the SMILES beside them. ξ: configuration not given here. Glutaryl = O=C(CCCC(=O)[*:2])[*:1]; ξH = NC(Cc1c[nH]cn1)C(=O)O

How the values were obtained:
[1] = system: Coxsackie A2 virus (strain HCXV A2); assay: Antiviral activity against Coxsackie virus in vivo (mortality and life expectancy of infected mice); details: for inhibition in vivo at 30 mg/kg / mortality at 30 mg/kg: Mus musculus, po; for inhibition in vivo at 30 mg/kg: 168 h, read-out: Protective index (%); for mortality at 30 mg/kg: 360 h, read-out: Total mortality, %; for Average life expectancy (days), Compared with control: difference vs virus control; for Average life expectancy (days), Relative: mice infected with 10LD50 HCXV A2
Description: In the study a trypsin-dependent strain HCXV A2 was used, previously adapted and causing death in mice from Coxsackie virus infection.
The experiment was carried out in white mice weighing 6 to 7 g. The animals were infected intramuscularly with a dose of 0.1 mL/mouse. The used infectious dose causing mortality in mice was 10LD50.
The ability of compounds to provide a therapeutic effect was determined by the mortality rate of HCXV A2 virus-infected mice in the experimental group relative to the group of untreated animals.
The studied compounds and placebo were administered orally according to the treatment regimen. Normal saline solution was administered to mice as placebo. Intact animals served as a negative control and were hold in a separate room under the same conditions as the experimental animals.
For the experiment, groups were formed with 14-15 animals each. Compounds were administered at a dose of 30 mg/kg of body weight. The studied compounds were administered orally once daily for 7 days (first administration was made 24 hours after infection). The animals were monitored for 15 days during which the animals were weighed and the mortality rate was registered every day.

human virus hRSV = assay: Antiviral activity against mouse-adapted RS virus (body weight; viral titer in lungs titrated in Hep-2 cells); assay type: in vivo, mice; details: for hRSV in the lungs of mice, Day 5, lg / hRSV in the lungs of mice, Day 7, lg: 10% lung suspension titrated in Hep-2 cells (TCID); for hRSV in the lungs of mice, Day 5, lg / Body weight of the mice on day 5 after infection with hRSV (M ± SD) / hRSV in the lungs of mice, Day 7, lg / Body weight of the mice on day 7 after infection with hRSV (M ± SD): compounds 30 mg/kg, Ribavirin 40 mg/kg; for Body weight of the mice on day 5 after infection with hRSV (M ± SD) / Body weight of the mice on day 7 after infection with hRSV (M ± SD): orally once daily for 5 days, n = 6; for log reduction at 30 mg/kg: human respiratory syncytial virus, HEp-2, po
Description: Antiviral effectiveness of the chemical compounds against RSV in an experimental murine model in vivo was determined for human virus hRSV that was previously adapted to the growth in mouse lungs. The animals were infected with the virus at a dose of 0.5 log TCID50 intranasally under brief ether anesthesia in a volume of 0.05 ml/mouse. The studied compounds were administered orally once daily for 5 days according to the treatment regimen at a dose of 30 mg/kg. The first administration was made 24 hours after infection. Normal saline solution was administered to mice as placebo. Intact animals served as a negative control and were hold in a separate room under the same conditions as the experimental animals. Each experimental group comprised 12 animals.
The antiviral activity of the studied compounds was determined by the efficiency in the prevention of weight loss and by suppression of the reproduction of hRSV in the mouse lungs by measuring a viral titer in the experimental groups relative to the control on days 5 and 7 after infection.
In addition, the therapeutic action of the compounds of general formula I was determined by their ability to suppress the reproduction of hRSV in the mouse lungs on days 5 and 7 after infection. The viral titer was determined by the titration of a 10% lung suspension in Hep-2 cell culture. The result was registered 2 days after the incubation at 37° C. by TCID.

[2] = system: human respiratory syncytial virus (strain A2); assay: Antiviral activity against RS virus in a murine model of suppressed immune system (lung edema); assay type: in vivo; details: Balb/c mice, cyclophosphan-suppressed, RS-virus pneumonia; 30 mg/kg once daily for 5 days; M ± SD, n = 5; scores from possible 4
Description: Antiviral activity of the chemical compounds against human respiratory syncytial virus (strain A2, an infectious titer of 5×10^6 TCID50/mL) was assessed in a Balb/c murine model of viral pneumonia. The virus was inoculated to animals intranasally in a volume of 50 μL under brief ether anesthesia. The immune response in animals to RS virus was suppressed by intraperitoneal administration of cyclophosphan at a dose of 100 mg/kg 5 days before infection. The studied compounds were administered according to the treatment regimen once daily at a dose of 30 mg/kg for 5 days, starting 24 hours after infection. The activity of the compounds was determined by a reduction in edema of the lung infected with respiratory syncytial virus, compared to the control, on day 5 after infection.

[3] = 30 mg/kg orally once daily for 7 days, vs virus control
[4] = 30 mg/kg orally once daily for 7 days
[5] = 120 h, read-out: Suppression of the reproduction of hRSV in the lungs of mice, Day 5, Δlg
[6] = 168 h, read-out: Suppression of the reproduction of hRSV in the lungs of mice, Day 7, Δlg

Row | Compound | inhibition in vivo at 30 mg/kg [1, 3] [%] | mortality at 30 mg/kg [1] [%] | Average life expectancy (days), Compared with control [1, 4] | Average life expectancy (days), Relative [1, 4] [days] | Body weight of the mice on day 5 after infection with hRSV (M ± SD) (human virus hRSV) | Body weight of the mice on day 7 after infection with hRSV (M ± SD) (human virus hRSV) | Degree of lung edema on day 5 after infection, score [2] [score] | also measured
1 | O=C(O)CCCC(=O)NCCCc1ccco1 [Compound 32] | 33 | 42.9 | +10.0 days | 22.2 | – | – | – | –
2 | O=C(O)CCCC(=O)NCCc1ccc[nH]1 [Compound 14] | – | 50 | +10.4 days | 21.4 | – | – | – | inhibition in vivo at 30 mg/kg [1]: 36%
3 | CN(CCc1cnc[nH]1)C(=O)CCCC(=O)O [Compound 117] | – | – | – | – | 16.07 ± 0.12 | 16.48 ± 0.28 | – | hRSV in the lungs of mice, Day 5, lg (human virus hRSV): 3.00 ± 0.41 lg; hRSV in the lungs of mice, Day 7, lg (human virus hRSV): 1.46 ± 0.24 lg; log reduction at 30 mg/kg (human virus hRSV; [5]): 1.6 ± 0.41; log reduction at 30 mg/kg (human virus hRSV; [6]): 2.22 ± 0.34
4 | O=C(O)CCCC(=O)NCCc1cncs1 [Compound 122] | – | – | – | – | 16.93 ± 0.32 | 16.37 ± 0.21 | – | hRSV in the lungs of mice, Day 5, lg (human virus hRSV): 3.04 ± 0.44 lg; hRSV in the lungs of mice, Day 7, lg (human virus hRSV): 1.75 ± 0.41 lg; log reduction at 30 mg/kg (human virus hRSV; [5]): 1.56 ± 0.44; log reduction at 30 mg/kg (human virus hRSV; [6]): 1.88 ± 0.47
5 | O=C(O)CCCC(=O)NCCc1cnco1 [Compound 123] | – | – | – | – | 15.87 ± 0.20 | 17.55 ± 0.53 | 1.30 ± 0.17 | hRSV in the lungs of mice, Day 5, lg (human virus hRSV): 2.50 ± 0.43 lg; hRSV in the lungs of mice, Day 7, lg (human virus hRSV): 1.33 ± 0.19 lg; log reduction at 30 mg/kg (human virus hRSV; [5]): 2.1 ± 0.43; log reduction at 30 mg/kg (human virus hRSV; [6]): 2.62 ± 0.5
6 | COC(=O)C(NC(=O)C(Cc1cnc[nH]1)NC(=O)CCCC(=O)O)C(C)C (stereo not drawn) [Compound 89] (Glutaryl-His-Val-OMe; configuration not given here) | 27 | 53.3 | +7.0 days | 17.7 | – | – | 0.75 ± 0.17 | –
7 | COC(=O)C(C)NC(=O)C(Cc1cnc[nH]1)NC(=O)CCCC(=O)O (stereo not drawn) [Compound 91] | – | – | – | – | – | – | 0.40 ± 0.11 | –
8 | O=C(O)CCCC(=O)NCCc1cc[nH]c1 [Compound 120] | – | – | – | – | 16.12 ± 0.27 | 17.22 ± 0.20 | 1.05 ± 0.14 | hRSV in the lungs of mice, Day 5, lg (human virus hRSV): 3.04 ± 0.47 lg; hRSV in the lungs of mice, Day 7, lg (human virus hRSV): 1.50 ± 0.25 lg; log reduction at 30 mg/kg (human virus hRSV; [5]): 1.56 ± 0.47; log reduction at 30 mg/kg (human virus hRSV; [6]): 2.05 ± 0.25
9 | O=C(O)CCCC(=O)NCCC1CNC=N1 (stereo not drawn) [Compound 4] | – | – | – | – | 16.77 ± 0.20 | 17.08 ± 0.32 | 1.95 ± 0.31 | hRSV in the lungs of mice, Day 5, lg (human virus hRSV): 2.58 ± 0.51 lg; hRSV in the lungs of mice, Day 7, lg (human virus hRSV): 1.38 ± 0.24 lg; log reduction at 30 mg/kg (human virus hRSV; [5]): 2.02 ± 0.51; log reduction at 30 mg/kg (human virus hRSV; [6]): 2.58 ± 0.53
10 | O=C(O)CCCC(=O)NCCc1cccnn1 [Compound 13] | 36 | 46.7 | +8.3 days | 19.0 | – | – | – | –
11 | O=C(O)CCCC(=O)NCCc1cnon1 [Compound 29] | 50 | 35.7 | +13.7 days | 26.7 | – | – | – | –
12 | O=C(O)CCCC(=O)NCCC1CNCCO1 (stereo not drawn) [Compound 9] | – | – | – | – | 15.75 ± 0.33 | 16.18 ± 0.29 | 1.00 ± 0.17 | –
13 | O=C(O)CCCC(=O)NCCC1=NCCN1 [Compound 3] | – | – | – | – | 16.65 ± 0.28 | 17.32 ± 0.25 | 1.6 ± 0.89 | hRSV in the lungs of mice, Day 5, lg (human virus hRSV): 3.04 ± 0.42 lg; hRSV in the lungs of mice, Day 7, lg (human virus hRSV): 1.46 ± 0.17 lg; log reduction at 30 mg/kg (human virus hRSV; [5]): 1.56 ± 0.42; log reduction at 30 mg/kg (human virus hRSV; [6]): 2.18 ± 0.28
14 | NC(=O)CNC(=O)C(Cc1c[nH]cn1)NC(=O)CCCC(=O)O (stereo not drawn) [Compound 184] (Glutaryl-[ξH]-Gly-NH2) | – | – | – | – | – | – | 1.00 ± 0.19 | –
15 | CC(C)C(NC(=O)C(Cc1cnc[nH]1)NC(=O)CCCC(=O)O)C(N)=O (stereo not drawn) [Compound 90] (Glutaryl-His-Val-NH2; configuration not given here) | 50 | 35.7 | +15.1 days | 25.9 | – | – | – | –
16 | O=C(O)CCCC(=O)NCCC1COCCN1 (stereo not drawn) [Compound 10] | – | – | – | – | 16.18 ± 0.29 | 16.53 ± 0.20 | – | –
17 | NC(=O)C(CO)NC(=O)C(Cc1cnc[nH]1)NC(=O)CCCC(=O)O (stereo not drawn) [Compound 96] (Glutaryl-His-Ser-NH2; configuration not given here) | – | – | – | – | – | – | 0.35 ± 0.11 | –
18 | CC(C)(CCC(=O)NC(Cc1c[nH]cn1)C(=O)O)C(=O)O (stereo not drawn) [Compound 75] | 50 | 35.7 | +14.3 days | 27.3 | – | – | – | –
19 | O=C(O)CCCC(=O)OCCc1cnc[nH]1 [Compound 71] | 44 | 35.7 | +16.4 days | 28.6 | – | – | – | –
20 | O=C(O)CCCC(=O)NCCC1CNCCN1 (stereo not drawn) [Compound 8] | – | – | – | – | 15.18 ± 0.18 | 17.13 ± 0.27 | – | –
21 | COC(=O)C(NC(=O)C(Cc1cnc[nH]1)NC(=O)CCCC(=O)O)C(C)O (stereo not drawn) [Compound 148] (Glutaryl-His-Thr-OMe; configuration not given here) | – | – | – | – | – | – | 2.00 ± 0.31 | –
22 | O=C(O)CCCC(=O)NCCCc1ccccn1 [Compound 35] | 27 | 53.3 | +5.9 days | 16.6 | – | – | 1.48 ± 0.17 | –
23 | O=C(O)CCCC(=O)NCCc1cn2ccccc2n1 [Compound 139] | – | – | – | – | – | – | 1.75 ± 0.77 | –
24 | O=C(O)CCCC(=O)NCCc1ncccn1 [Compound 12] | 45 | 40 | +14.2 days | 24.9 | – | – | – | –
25 | CC(CCC(=O)O)C(=O)NCCc1c[nH]cn1 (stereo not drawn) [Compound 30] | 18 | 60 | +2.4 days | 13.1 | – | – | – | –
26 | O=C(O)CCCC(=O)NCCc1ccc(Cl)nc1 [Compound 36] | 27 | 53.3 | +6.0 days | 16.7 | – | – | – | –
